Measurements reported in patent publication US20240216395A1, “19-NOR C3,3-DISUBSTITUTED C21 -N-PYRAZOLYL STEROID FOR USE IN TREATING MAJOR DEPRESSIVE DISORDER AND […]” (priority 2021, published 2024).

Legend:
[1] = system: patients with MDD; assay: Phase 2 clinical trial of Compound (1) 30 mg in MDD (NCT03000530): TEAEs; format: in vivo, human
Description: The study design and results, if applicable, of the clinical trials identified by the NCT numbers are each incorporated by reference herein in its entirety.
The majority of patients receiving Compound (1) and experiencing a TEAE reported TEAEs mild and moderate in severity: clinical trial of Example 4 94%, Phase 2 clinical trial conducted by Applicant 100%, previous Phase 3 clinical trial conducted by Applicant 98%, and clinical trial of Example 1 95.0%.

[2] = system: nondependent, recreational users of CNS depressants; assay: Abuse potential main study, treatment phase: TEAEs; format: in vivo, human
Procedure: The main study consisted of 4 phases (FIG. 30B). The screening phase was a 1-day visit occurring within 21 days of the beginning of the qualification phase. The qualification phase was a 4-day, inpatient period to ensure participants could discriminate between alprazolam (active comparator) and placebo, and that they could tolerate the alprazolam 2-mg doses. Participants received single-oral doses of alprazolam 2 mg and placebo in a crossover manner 24 hours apart, and if they could discriminate between the two medications, they continued to the treatment phase. The treatment phase was a double-blind, active- and placebo-controlled, 6-way crossover design where participants were randomized equally to a single oral dose of 1 of 6 treatments: placebo, alprazolam (1.5 and 3 mg), and Compound (1) (30, 60, and 90 mg). The Compound (1) doses were based on the results from the first part, dose selection, and treatments were separated by 7 days. The follow-up phase was a 1-day visit occurring 7 (2) days after the treatment phase.
Safety and tolerability endpoints included the frequency and severity of AEs and SAEs, the change from baseline in clinical laboratory assessments, vital signs, and ECG, and suicidality assessed by the Columbia-Suicide Severity Rating Scale (C-SSRS).
The dose selection safety set included all participants who received 1 dose of Compound (1). The main study qualification safety set included all participants who received ≥1 dose of alprazolam. For the treatment phase, the randomized set included all participants who were randomized and the safety set included all participants who received ≥1 dose of Compound (1) or alprazolam. The completer set included all participants in the randomized set who completed all treatment periods, had sufficient data for evaluation of the primary endpoint, and had ≥1 observation within 2 hours of Tmax for each treatment for Drug Liking VAS scores. […] The PK set included all participants in the treatment phase who received 1 dose of Compound (1) and had 1 PK sample after dosing.

[3] = system: nondependent, recreational users of CNS depressants; assay: Abuse potential main study, treatment phase: subjective VAS measures (Drug Liking, Overall Drug Liking, Take Drug Again, High, Good/Bad/Any Drug Effects, Alertness/Drowsiness, Drug Similarity)
[4] = treatment phase, Compound (1) 30 mg (n = 65)
[5] = treatment phase, Compound (1) 60 mg (n = 66)
[6] = treatment phase, Compound (1) 90 mg (n = 67)
[7] = Alprazolam 1.5 mg - Compound (1) 30 mg
[8] = Alprazolam 1.5 mg - Compound (1) 30 mg (relative abuse potential)
[9] = Alprazolam 1.5 mg - Compound (1) 60 mg
[10] = Alprazolam 1.5 mg - Compound (1) 60 mg (relative abuse potential)
[11] = Alprazolam 1.5 mg - Compound (1) 90 mg
[12] = Alprazolam 1.5 mg - Compound (1) 90 mg (relative abuse potential)
[13] = Alprazolam 3 mg - Compound (1) 30 mg
[14] = Alprazolam 3 mg - Compound (1) 30 mg (relative abuse potential)
[15] = Alprazolam 3 mg - Compound (1) 60 mg
[16] = Alprazolam 3 mg - Compound (1) 60 mg (relative abuse potential)
[17] = Alprazolam 3 mg - Compound (1) 90 mg
[18] = Alprazolam 3 mg - Compound (1) 90 mg (relative abuse potential)
[19] = Compound (1) 30 mg - placebo (absolute abuse potential)
[20] = Compound (1) 60 mg - placebo (absolute abuse potential)
[21] = Compound (1) 90 mg - placebo (absolute abuse potential)

C[C@@]1(O)CC[C@H]2[C@H](CC[C@@H]3[C@@H]2CC[C@]2(C)[C@@H](C(=O)Cn4cc(C#N)cn4)CC[C@@H]32)C1 [Compound (1), 1-(2-((3R,5R,8R,9R,10S,13S,14S,17S)-3-hydroxy-3,13-dimethylhexadecahydro-1H-cyclopenta[a]phenanthren-17-yl)-2-oxoethyl)-1H-pyrazole-4-carbonitrile]
Diarrhea ([1]; 30 mg (N = 45)): 0 n (%)
URTI ([1]; 30 mg (N = 45)): 0 n (%)
Patients with a TEAE whose TEAEs were mild and moderate in severity ([1]; Phase 2 clinical trial): 100%
Severe TEAEs and deaths ([2]; 30, 60, 90 mg single doses): no reported severe TEAEs nor deaths
Back pain (TEAE) [2, 4]: 0 n
Confusional state (TEAE) [2, 4]: 0 n
Diarrhea (TEAE) [2, 4]: 0 n
Feeling drunk (TEAE) [2, 4]: 0 n
Fine motor skill dysfunction (TEAE) [2, 4]: 0 n
Hiccups (TEAE) [2, 4]: 0 n
Irritability (TEAE) [2, 4]: 0 n
Lacrimation increased (TEAE) [2, 4]: 0 n
Swelling face (TEAE) [2, 4]: 0 n
Tremor (TEAE) [2, 4]: 0 n
Upper respiratory tract infection (TEAE) [2, 4]: 0 n
Back pain (TEAE) [2, 5]: 0 n
Confusional state (TEAE) [2, 5]: 0 n
Fine motor skill dysfunction (TEAE) [2, 5]: 0 n
Hiccups (TEAE) [2, 5]: 0 n
Irritability (TEAE) [2, 5]: 0 n
Lacrimation increased (TEAE) [2, 5]: 0 n
Swelling face (TEAE) [2, 5]: 0 n
Upper respiratory tract infection (TEAE) [2, 5]: 0 n
Back pain (TEAE) [2, 6]: 0 n
Diarrhea (TEAE) [2, 6]: 0 n
Hiccups (TEAE) [2, 6]: 0 n
Lacrimation increased (TEAE) [2, 6]: 0 n
Upper respiratory tract infection (TEAE) [2, 6]: 0 n
Alert/Drowsiness VAS: time scores remained below neutral value of 50 ([3]; 30 mg): 6-7 hours postdose
Alert/Drowsiness VAS: time scores remained below neutral value of 50 ([3]; 60 and 90 mg): 8-10 hours postdose
Drug Liking Emax difference [3, 7]: 12.50
Overall Drug Liking Emax difference [3, 7]: 13.92
Take Drug Again Emax difference [3, 7]: 13.67
Bad Drug Effects Emax difference [3, 8]: 0
Good Drug Effects Emax difference [3, 8]: 24.62
High Effects Emax difference [3, 8]: 24.59
Drug Liking Emax difference [3, 9]: 2.00
Overall Drug Liking Emax difference [3, 9]: 5.63
Take Drug Again Emax difference [3, 9]: 0
Bad Drug Effects Emax difference [3, 10]: 0
Good Drug Effects Emax difference [3, 10]: 0.00
High Effects Emax difference [3, 10]: 7.57
Drug Liking Emax difference [3, 11]: −3.55
Overall Drug Liking Emax difference [3, 11]: 1.12
Take Drug Again Emax difference [3, 11]: 0
Bad Drug Effects Emax difference [3, 12]: −12.93
Good Drug Effects Emax difference [3, 12]: −12.00
High Effects Emax difference [3, 12]: −12.00
Drug Liking Emax difference [3, 13]: 14.00
Overall Drug Liking Emax difference [3, 13]: 14.62
Take Drug Again Emax difference [3, 13]: 16.43
Bad Drug Effects Emax difference [3, 14]: 1.00
Good Drug Effects Emax difference [3, 14]: 33.48
High Effects Emax difference [3, 14]: 32.45
Drug Liking Emax difference [3, 15]: 2.50
Overall Drug Liking Emax difference [3, 15]: 6.33
Take Drug Again Emax difference [3, 15]: 7.15
Bad Drug Effects Emax difference [3, 16]: 1.00
Good Drug Effects Emax difference [3, 16]: 7.50
High Effects Emax difference [3, 16]: 15.42
Drug Liking Emax difference [3, 17]: 0.00
Overall Drug Liking Emax difference [3, 17]: 1.82
Take Drug Again Emax difference [3, 17]: 0
Bad Drug Effects Emax difference [3, 18]: −1.82
Good Drug Effects Emax difference [3, 18]: −1.00
High Effects Emax difference [3, 18]: −4.14
Drug Liking Emax difference ([3]; Compound (1) 30 mg - placebo): 12.00
Overall Drug Liking Emax difference ([3]; Compound (1) 30 mg - placebo): 6.50
Take Drug Again Emax difference ([3]; Compound (1) 30 mg - placebo): 9.00
Bad Drug Effects Emax difference [3, 19]: 0
Good Drug Effects Emax difference [3, 19]: 19.98
High Effects Emax difference [3, 19]: 19.21
Drug Liking Emax difference ([3]; Compound (1) 60 mg - placebo): 18.12
Overall Drug Liking Emax difference ([3]; Compound (1) 60 mg - placebo): 16.75
Take Drug Again Emax difference ([3]; Compound (1) 60 mg - placebo): 18.57
Bad Drug Effects Emax difference [3, 20]: 0
Good Drug Effects Emax difference [3, 20]: 40.53
High Effects Emax difference [3, 20]: 36.23
Drug Similarity: Benzodiazepines Similarity median score ([3]; Compound (1) 90 mg): 92.5
Drug Similarity: Opioids Similarity median score ([3]; Compound (1) 90 mg): 39.0
Drug Liking Emax difference ([3]; Compound (1) 90 mg - placebo): 25.00
Overall Drug Liking Emax difference ([3]; Compound (1) 90 mg - placebo): 21.27
Take Drug Again Emax difference ([3]; Compound (1) 90 mg - placebo): 24.50
Bad Drug Effects Emax difference [3, 21]: 0
Good Drug Effects Emax difference [3, 21]: 59.00
High Effects Emax difference [3, 21]: 55.80
Drug Similarity: Placebo Similarity median score ([3]; all dosages, 12 hours postdose): zero
